# Measured values published in patent US7585895B2, “Therapeutic substituted cyclopentanes” (Allergan, Inc., priority 2005, dated 2009).
# Key:
# Assay type in all cases: cell-based
# EP2 = EP2 (Homo sapiens, UniProt P43116); test: cAMP assay, HEK-EBNA cells expressing EP2; parameters: expressed in transfected cells; host or cells: HEK-EBNA; conditions: value in parentheses in EP2 column, read-out: EP2 EC50 (nM), measurement of cAMP (data in parentheses)
# How it was run: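 HEK-EBNA cells expressing EP2 (10^4 cells per well) were stimulated for 30 min at room temperature with compound in HBSS containing 0.1% BSA, 0.5 mM IBMX and 5 mM HEPES, pH 7.4. Compounds ran in 16-point serial dilutions in triplicate. cAMP was detected by AlphaScreen competition between anti-cAMP acceptor beads and biotin-cAMP/streptavidin donor beads.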
# hDP/Gqs5 = molecular target: T1, hDP/Gqs5 (Homo sapiens, UniProt Q13258); test: FLIPR calcium signal, DP; conditions: HEK-293(EBNA)
# T1 construct: expressed in transfected cells
# T1 sequence (Q13258 1-359): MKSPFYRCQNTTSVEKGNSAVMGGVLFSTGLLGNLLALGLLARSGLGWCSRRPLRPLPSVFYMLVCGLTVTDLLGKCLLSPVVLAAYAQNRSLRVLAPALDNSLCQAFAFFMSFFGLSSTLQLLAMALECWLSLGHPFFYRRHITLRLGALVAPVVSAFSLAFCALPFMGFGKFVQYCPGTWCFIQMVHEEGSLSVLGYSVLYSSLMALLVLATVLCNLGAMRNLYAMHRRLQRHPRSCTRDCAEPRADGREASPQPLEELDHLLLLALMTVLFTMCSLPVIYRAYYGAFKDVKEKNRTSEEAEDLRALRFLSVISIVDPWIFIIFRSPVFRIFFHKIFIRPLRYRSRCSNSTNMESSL
# How it was run: (§1)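 Stably transfected HEK-293(EBNA) cells loaded with 2 μM Fluo-4 AM in HBSS-HEPES pH 7.4, 37° C; peak fluorescence rise after compound addition (FLIPR, 488 nm excitation) expressed relative to buffer and standard agonist controls (PGE2 for EP subtypes, U-46619 for TP). Tested 10^−5 to 10^−11 M, duplicates, n≧3.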
# hEP2/Gqs5 = molecular target: T2, hEP2/Gqs5 (Homo sapiens, UniProt P43116); test: FLIPR calcium signal, EP2; conditions: HEK-293(EBNA), value outside parentheses, read-out: Ca2+ Signal-EC50 (nM) EP2
# T2 construct: expressed in transfected cells
# T2 sequence (P43116 whole entry): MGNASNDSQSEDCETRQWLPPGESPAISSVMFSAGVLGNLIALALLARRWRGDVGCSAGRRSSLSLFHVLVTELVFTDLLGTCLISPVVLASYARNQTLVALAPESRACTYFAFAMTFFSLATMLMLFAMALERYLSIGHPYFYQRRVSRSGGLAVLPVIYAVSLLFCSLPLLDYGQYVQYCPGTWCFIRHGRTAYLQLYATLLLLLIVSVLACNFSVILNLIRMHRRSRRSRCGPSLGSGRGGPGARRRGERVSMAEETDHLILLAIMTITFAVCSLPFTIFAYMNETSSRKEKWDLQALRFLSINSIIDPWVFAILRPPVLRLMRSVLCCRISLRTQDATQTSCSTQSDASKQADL
# How it was run: as §1
# hIP = molecular target: T3, hIP (Homo sapiens, UniProt P43119); test: FLIPR calcium signal, IP; conditions: HEK-293(EBNA)
# T3 construct: expressed in transfected cells
# T3 sequence (P43119 whole entry): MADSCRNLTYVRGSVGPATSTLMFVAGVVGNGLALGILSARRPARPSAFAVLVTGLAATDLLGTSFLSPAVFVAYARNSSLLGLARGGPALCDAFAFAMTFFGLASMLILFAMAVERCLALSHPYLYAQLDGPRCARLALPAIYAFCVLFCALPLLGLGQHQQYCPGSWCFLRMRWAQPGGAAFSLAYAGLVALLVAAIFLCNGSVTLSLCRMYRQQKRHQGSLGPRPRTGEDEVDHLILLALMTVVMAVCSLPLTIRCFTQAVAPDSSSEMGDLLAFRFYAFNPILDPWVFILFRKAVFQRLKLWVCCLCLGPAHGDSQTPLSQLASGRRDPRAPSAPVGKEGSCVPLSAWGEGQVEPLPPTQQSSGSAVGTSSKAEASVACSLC
# How it was run: as §1
# hEP1 = molecular target: T4, hEP1 (Homo sapiens, UniProt P34995); test: FLIPR calcium signal, EP1; conditions: HEK-293(EBNA)
# T4 construct: expressed in transfected cells
# T4 sequence (P34995 1-402): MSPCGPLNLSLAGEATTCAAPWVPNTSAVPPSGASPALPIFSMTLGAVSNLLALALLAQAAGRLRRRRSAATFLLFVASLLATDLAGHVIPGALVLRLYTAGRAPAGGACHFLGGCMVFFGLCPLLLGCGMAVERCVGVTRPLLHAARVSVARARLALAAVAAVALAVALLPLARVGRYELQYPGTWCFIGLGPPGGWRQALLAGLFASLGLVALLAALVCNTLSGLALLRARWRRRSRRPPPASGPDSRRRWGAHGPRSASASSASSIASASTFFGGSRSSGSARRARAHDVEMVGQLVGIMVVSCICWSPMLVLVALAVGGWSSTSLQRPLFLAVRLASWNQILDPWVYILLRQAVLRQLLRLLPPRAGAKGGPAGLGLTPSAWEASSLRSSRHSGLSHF
# How it was run: as §1
# EP2, sequence (P43116 whole entry): as the sequence (P43116 whole entry) above
SMILES,EC50 (EP2),Ca2+ Signal-EC50 (nM) DP (hDP/Gqs5),EC50 (hEP2/Gqs5),Ca2+ Signal-EC50 (nM) IP (hIP),Ca2+ Signal-EC50 (nM) EP1 (hEP1)
"CCCCCCC(O)c1ccc([C@@H]2[C@@H](C/C=C\CCCC(=O)O)[C@H](Cl)C[C@H]2O)cc1 (stereo partly drawn) [Entry 25, (Z)-7-{(1R,2S,3R,5R)-5-Chloro-3-hydroxy-2-[4-(1-hydroxy-heptyl)-phenyl]-cyclopentyl}-hept-5-enoic acid]",12 nM,not active,58 nM,not active,not active
"CCCC1(C(O)c2cccc([C@@H]3[C@@H](Cc4cccc(CCC(=O)O)c4)[C@H](Cl)C[C@H]3O)c2)CCC1 (stereo partly drawn) [Entry 4, 3-[3-((1R,2S,3R,5R)-5-Chloro-3-hydroxy-2-{3-[hydroxy-(1-propyl-cyclobutyl)-methyl]-phenyl}-cyclopentylmethyl)-phenyl]-propionic acid]",69 nM,not active,4110 nM,not active,not active
"O=C(O)CCC/C=C\C[C@@H]1[C@@H](c2ccc(C(O)CCc3ccccc3)cc2)[C@H](O)C[C@H]1Cl (stereo partly drawn) [Entry 23, (Z)-7-{(1R,2S,3R,5R)-5-Chloro-3-hydroxy-2-[4-(1-hydroxy-3-phenyl-propyl)-phenyl]-cyclopentyl}-hept-5-enoic acid]",125 nM,not active,548 nM,not active,not active
